Experimental data reported in patent US12716903B2, “Microfluidic chip-based, universal coagulation assay” (Perosphere Technologies Inc., priority 2014, dated 2026).

Test system: blood
Experiment: Blood clotting time on microfluidic closed device chip, by IR light transmission and impedance
Design: species or system patient
Details: PER977 added to blood sample containing edoxaban, both at 300 ng/mL; IR and impedance curves; room temperature
Experimental: For detection of clotting through measurement of impedances, a sample is loaded into the chip, the chip is inserted into its reader, and the pogo pins connecting to the internal impedance electrodes connected via Kelvin clip leads to a QuadTech 1920 LCR meter. The magnitude and the phase of the complex impedance of the blood sample were recorded at 15 second intervals. […] The peaks or plateaus indicated a measure for the clotting time.
For optical clot detection, IR LED and photodiode are inserted into their reader parts as described above. A blood sample is pipetted into the chip and the chip placed into the reader. The sample is continuously illuminated with IR light at 1,300 nm. At time intervals of typically 100 ms, the voltage drop across a 1 MOhm resistor caused by the photocurrent of the photodiode was recorded. Voltages typically measured several volts. Clotting of the sample caused the transmitted light and the photocurrent to vary over time. Characteristic peaks of the transmitted light curve indicated a measure for the clotting time.
Blood was harvested from a patient using commercially available lancing devices. 10 μL of blood were obtained and pipetted into an Eppendorf tube. […]
Edoxaban is a commercially available anticoagulant. […] The chip was inserted into its reader, and both IR light and impedance measurements were immediately recorded at room temperature (approximately 27° C.). […]

N=C(N)NCCC[C@H](N)C(=O)NCCCN1CCN(CCCNC(=O)[C@@H](N)CCCNC(=N)N)CC1 [PER977, ciraparantag]
characteristic peak indicative of the sample clotting time: 2 min | occurrence of a local minimum around 12 minutes: suppresses the occurrence of a local minimum
